Activity calls are given as the source filed them. The rule behind the calls is not given here.
These compounds were tested against T1, Glucagon-like peptide 2 receptor (Homo sapiens) (UniProt O95838) (assay: Positive ago-allosteric modulation of GLP2R overexpressed in human SE302 cells assessed as placental alkaline phosphatase activation at 12.5 uM measured on day 3 by Alamar Blue assay relative to 100 pM GLP2).
T1 sequence (whole entry): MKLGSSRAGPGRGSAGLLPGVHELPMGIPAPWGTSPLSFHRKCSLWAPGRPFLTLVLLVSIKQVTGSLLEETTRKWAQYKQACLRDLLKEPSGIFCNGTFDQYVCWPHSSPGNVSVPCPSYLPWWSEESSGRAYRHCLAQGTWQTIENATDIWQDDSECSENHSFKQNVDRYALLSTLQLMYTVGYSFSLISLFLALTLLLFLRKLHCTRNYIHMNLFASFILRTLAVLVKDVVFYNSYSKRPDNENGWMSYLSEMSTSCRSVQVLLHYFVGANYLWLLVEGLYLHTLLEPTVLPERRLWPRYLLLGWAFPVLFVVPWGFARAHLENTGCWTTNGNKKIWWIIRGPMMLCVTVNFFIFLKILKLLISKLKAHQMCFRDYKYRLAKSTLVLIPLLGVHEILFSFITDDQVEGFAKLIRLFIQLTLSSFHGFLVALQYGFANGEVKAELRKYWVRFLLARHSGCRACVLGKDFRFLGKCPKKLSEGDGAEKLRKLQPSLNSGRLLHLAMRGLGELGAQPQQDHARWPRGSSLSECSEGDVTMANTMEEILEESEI
Assay type: cell-based

How did the %max turn out when `O/N=C(\CSc1ccncc1-c1ccccc1)c1cc(Cl)sc1Cl` was run?
The %max was 102%.

Which %max does the source give for `CCC(CC)n1nc(C(F)(F)F)cc1/C(CSc1ccccc1)=N/O` here?
The %max was 31%.

How did the %max turn out when `Cc1ccc(C)c(SC/C(=N\O)c2cc(Cl)sc2Cl)c1` was run?
The %max was 40%.

With `CCC(C)n1nc(C(F)(F)F)cc1/C(CSc1ccccc1)=N/O` (stereo unspecified) as the compound, how does the %max read?
Its %max is 110%.

`O/N=C(\CSc1ccccc1C(F)(F)F)c1cc(Cl)sc1Cl` was tested. Which %max did it give?
The %max was 58%.

`COc1c(N(C)C)cc(/C(CSc2ccccc2)=N/O)cc1C(C)(C)C` was tested. Which %max did it give?
The %max was 43%.

For `O/N=C(\CSc1ccccc1)c1cc(C(F)(F)F)nn1Cc1ccccc1`, which %max is on record?
Its %max is 59%.

`Cc1ccc(SC/C(=N\O)c2cc(Cl)sc2Cl)c(C)c1` was tested. Which %max did it give?
Its %max is 58%.

How did the %max turn out when `O/N=C(\CSc1ccccc1-c1ccccc1)c1cc(Cl)sc1Cl` was run?
The %max was 84%.

For `CC(C)(C)c1ccccc1SC/C(=N\O)c1cc(Cl)sc1Cl`, which %max is on record?
Its %max is 40%.

How did the %max turn out when `COc1c(C(=O)OC(C)(C)C)cc(/C(CSc2ccccc2)=N/O)cc1C(C)(C)C` was run?
The %max was 12%.

For `COc1c(Br)cc(/C(CSc2ccccc2)=N/O)cc1C(C)(C)C`, which %max is on record?
The %max was 43%.

The compounds below were run against T1, Glucagon-like peptide 2 receptor (Homo sapiens) (assay: Positive ago-allosteric modulation of GLP2R overexpressed in human SE302 cells assessed as placental alkaline phosphatase activation measured on day 3 by Alamar Blue assay).
Assay type: cell-based

Which Activity does the source give for `Cn1nc(C2CC2)cc1/C(CSc1ccccc1)=N/O` here?
Its Activity is “inactive”.

How did the Activity turn out when `CC(C)(C)SC/C(=N\O)c1cc(Cl)sc1Cl` was run?
The Activity was “inactive”.

With `O/N=C(\CSc1ccccc1)c1cccc(O)c1` as the compound, how does the Activity read?
Its Activity is “inactive”.

Which Activity does the source give for `Cc1cc(/C(CSc2ccccc2)=N/O)n(C)n1` here?
Its Activity is “inactive”.

`Cn1nc(C(F)(F)F)cc1/C(CSc1ccccc1)=N/O` was tested. Which Activity did it give?
Its Activity is “inactive”.

With `O=C(O)c1ccccc1SC/C(=N\O)c1cc(Cl)sc1Cl` as the compound, how does the Activity read?
Its Activity is “inactive”.

`O/N=C(\CSCc1ccccc1)c1cc(Cl)sc1Cl` was tested. Which Activity did it give?
Its Activity is “inactive”.

How did the Activity turn out when `O/N=C(\CSCCCc1ccccc1)c1cc(Cl)sc1Cl` was run?
Its Activity is “inactive”.

With `COc1c(C(=O)O)cc(/C(CSc2ccccc2)=N/O)cc1C(C)(C)C` as the compound, how does the Activity read?
The Activity was “inactive”.

`O/N=C(\CSC1CCCCC1)c1cc(Cl)sc1Cl` was tested. Which Activity did it give?
Its Activity is “inactive”.

`CCSC/C(=N\O)c1cc(Cl)sc1Cl` was tested. Which Activity did it give?
The Activity was “inactive”.

With `Cn1nc(C(C)(C)C)cc1/C(CSc1ccccc1)=N/O` as the compound, how does the Activity read?
Its Activity is “inactive”.

For `O/N=C(\CSc1ccccn1)c1cc(Cl)sc1Cl`, which Activity is on record?
Its Activity is “inactive”.

These compounds were tested against T1, Glucagon-like peptide 2 receptor (Homo sapiens) (assay: Positive ago-allosteric modulation of GLP2R overexpressed in human SE302 cells assessed as placental alkaline phosphatase activation at 25 uM measured on day 3 by Alamar Blue assay relative to 100 pM GLP2).
Assay type: cell-based

With `O/N=C(\CSc1ccc(C(F)(F)F)cc1)c1cc(Cl)sc1Cl` as the compound, how does the %max read?
Its %max is 16%.

Which %max does the source give for `Cn1nc(-c2ccccc2)cc1/C(CSc1ccccc1)=N/O` here?
The %max was 14%.

With `O/N=C(\CSc1ccccc1)c1cc(C(F)(F)F)nn1C1CCC1` as the compound, how does the %max read?
The %max was 99%.

For `O/N=C(\CSc1cccc(Cl)c1)c1cc(Cl)sc1Cl`, which %max is on record?
The %max was 53%.

For `Cc1cc(F)ccc1SC/C(=N\O)c1cc(Cl)sc1Cl`, which %max is on record?
The %max was 124%.

`Cc1ccccc1SC/C(=N\O)c1cc(Cl)sc1Cl` was tested. Which %max did it give?
Its %max is 90%.

Which %max does the source give for `O/N=C(\CSc1ccccc1)c1cc(C(F)(F)F)nn1C1CCCC1` here?
The %max was 127%.

With `O/N=C(\CSc1ccccc1F)c1cc(Cl)sc1Cl` as the compound, how does the %max read?
The %max was 80%.

With `O/N=C(\CSc1ccncc1C(F)(F)F)c1cc(Cl)sc1Cl` as the compound, how does the %max read?
Its %max is 143%.

For `Cn1nc(C(F)(F)F)cc1/C(CSc1ccccc1)=N/O`, which %max is on record?
The %max was 13%.

With `O/N=C(\CSc1ccccc1Cl)c1cc(Cl)sc1Cl` as the compound, how does the %max read?
Its %max is 60%.

`Cc1cccc(SC/C(=N\O)c2cc(Cl)sc2Cl)c1C` was tested. Which %max did it give?
Its %max is 54%.

For `COc1cccc(/C(CSc2ccccc2)=N/O)c1`, which %max is on record?
Its %max is 8%.

How did the %max turn out when `CCc1cnccc1SC/C(=N\O)c1cc(Cl)sc1Cl` was run?
Its %max is 59%.

`COc1cccc(SC/C(=N\O)c2cc(Cl)sc2Cl)c1C` was tested. Which %max did it give?
Its %max is 31%.

How did the %max turn out when `O/N=C(\CSc1cccc(F)c1)c1cc(Cl)sc1Cl` was run?
The %max was 73%.

With `CCc1ccccc1SC/C(=N\O)c1cc(Cl)sc1Cl` as the compound, how does the %max read?
The %max was 63%.

With `CC(C)(C)OC(=O)c1cc(/C(CSc2ccccc2)=N/O)cc(C(C)(C)C)c1O` as the compound, how does the %max read?
Its %max is 4%.

How did the %max turn out when `Cc1cccc(C)c1SC/C(=N\O)c1cc(Cl)sc1Cl` was run?
Its %max is 10%.

Which %max does the source give for `O/N=C(\CSc1cccs1)c1cc(Cl)sc1Cl` here?
Its %max is 40%.

How did the %max turn out when `CCCn1nc(C(F)(F)F)cc1/C(CSc1ccccc1)=N/O` was run?
Its %max is 71%.

`O/N=C(\CSc1cccc2ccccc12)c1cc(Cl)sc1Cl` was tested. Which %max did it give?
The %max was 23%.

For `CCCOc1cccc(/C(CSc2ccccc2)=N/O)c1`, which %max is on record?
Its %max is 9%.

How did the %max turn out when `CC(C)n1nc(C(F)(F)F)cc1/C(CSc1ccccc1)=N/O` was run?
The %max was 87%.

`CC(C)Oc1cccc(/C(CSc2ccccc2)=N/O)c1` was tested. Which %max did it give?
The %max was 14%.

With `Cc1cccc(SC/C(=N\O)c2cc(Cl)sc2Cl)c1` as the compound, how does the %max read?
Its %max is 30%.

Reference: ChEMBL document CHEMBL2176875, “Ago-allosteric modulators of human glucagon-like peptide 2 receptor” (Bioorg Med Chem Lett, 2012)
